“Also recorded” adds a separate entry of the source.
Columns and labels:
[1] = tested on: heat sensitive mouse podocytes; experiment: Immunofluorescent staining of cultured HSMP (nephrin, podocin); settings: 200 μM ATRA
primary mouse podocytes = experiment: Western blot analysis of nephrin and podocin, primary mouse podocytes; assay type: cell-based; settings: primary mouse cultures, FIG. 2
Experimental: Experiments were also performed on podocytes derived from C57/bl mice. Glomeruli were sieved and prepared as previously described. […] 61:40-50. Podocytes were grown on collagen 1 coated plates with MGEC-media containing 5% fetal bovine serum (FBS: Summit biotechnology, Ft. Collins, Colo., USA), penicillin (100 U/ml), streptomycin (100 μg/ml), and glutamine (2 mmol/L; all Irvine Scientific, Santa Ana, Calif., USA) at 37° C. in 95% air/5% CO2. Podocytes were identified by previously described criteria (Shankland et al. (1999) supra) and by confirming the presence of podocyte specific proteins—including WT-1, nephrin, podocin, and ezrin—by immunostaining.
(§1) Exposure ofpodocvtes to ATRA. Rat podocytes, mouse podocytes, and growth permissive HSMP were plated at a concentration of 15,000 cell/cm^2 in standard media and allowed to adhere overnight.

podocytes [2] = experiment: Hoecht's Assay of apoptosis for dose selection; assay type: cell-based, mouse; settings: 25 mM ATRA
Experimental: The dose of 25 mMol/ml ATRA was selected after exposing cells to varying mMol doses of ATRA (10, 25, 50, 75, 100) and then measuring apoptosis with the Hoecht's Assay according to the manufacturer's directions. Apoptosis was not increased at 25 mM.

cultured rat podocytes = experiment: Cell morphology by scanning electron microscopy, cultured rat podocytes; assay type: cell-based
Experimental: as §1
Cell morphology was carefully examined under light microscopy on an inverted scope. Cellular morphology was also examined by scanning electron microscopy on adherent cells fixed in half-strength Karnovsky's solution.

podocytes [3] = experiment: Hoechst 33342 staining for apoptosis and binucleated cells; assay type: cell-based; settings: at the concentrations of ATRA used in these experiments; statistically insignificant
Experimental: To ensure that the anti-proliferative effects of ATRA were not confounded by podocyte apoptosis in podocytes or bi-nucleated cells, Hoechst 33342 (Molecular Probes, Eugene, Oreg., USA) staining was performed as previously reported. Hiromura et al. (1999) J Clin Invest 103:597-604. Careful morphological analysis was performed and the percentage of apoptotic cells was quantitated in adherent and non-adherent cells using inverted fluorescent microscopy as previously described. Hiromura et al. (1999) supra; and Mooney et al. (1997) J Immunol 159:3949-3960.

[4] = tested on: C57BL6 mice with anti-glomerular antibody-mediated podocyte injury; experiment: Anti-glomerular antibody model of podocyte injury: renal function (proteinuria, BUN); assay type: in vivo, mouse; settings: for BUN increase: anti-glomerular disease; for proteinuria vs control (vehicle): mice with anti-glomerular disease, ATRA 16.6 mg/kg IP daily, P<0.001, FIG. 3
Experimental: (§2) An antibody-mediated model of podocyte injury was induced in C57BL6 mice with a sheep anti-glomerular antibody (two doses of 0.3 ml/20 gm body weight) over two consecutive days. Kim et al. (1999) Kidney Int 55:2349-2361; and Ophascharoensuk et al. (1998) Kidney Int 54:416-425. After the induction of the anti-glomerular model, but before the development of proteinuria, mice were then divided into an experimental group that received daily injections of ATRA 16.6 mg/kg (IP), and a control group that received vehicle (corn oil). Experimental and control animals were studied on day 7 and 14 (n=5 per group/time point). The podocyte specific proteins WT-1, nephrin, podocin, synaptopodin, were measured by immunostaining at each time point, as was the proliferation marker, PCNA (see above). Using proliferating cell nuclear antigen (PCNA) as a marker of proliferation and WT-1 as a marker for podocytes, the level of podocyte proliferation was determined.
Renal Function Assessment. Control and experimental mice were placed in metabolic urine collection cages in order to obtain a timed collection for urinalysis. Urine was analyzed for protein content utilizing the sulphosalicylic acid (SSA) method as previously described. Shankland et al. (1996) Kidney Int. 50:116-124. Serum was also collected from mice in order to evaluate blood urea nitrogen (BUN) levels. The BUN kit (Sigma Chemicals, St. Louis, Mo., USA) is based on the direct interaction of urea with diacetyl monomoxime […]. The absorbance obtained from serum samples is compared with a standard curve of increasing concentrations of urea nitrogen standards.

[5] = tested on: C57BL6 mice with anti-glomerular antibody-mediated podocyte injury; experiment: Anti-glomerular antibody model of podocyte injury: immunostaining of kidney tissue; assay type: in vivo, mouse; settings: for PCNA staining (podocyte proliferation) vs control: FIG. 4; for WT-1 staining (podocyte number) vs control: P<0.001, FIG. 5
Experimental: Immunofluorescent staining of kidney tissue. Mouse kidney biopsies were fixed in methyl Carnoy's (MC) solution or snap frozen in liquid nitrogen for analysis of proliferating cell nuclear antigen (PCNA), WT-1, podocin, synaptopodin, podocalyxin, and nephrin in vivo following ATRA treatment in anti-glomerular disease. Sections (4 μm) were cut from paraffin embedded MC fixed tissue or from OCT embedded frozen tissue. Frozen sections were then fixed in 100% methanol at −20° C. Mouse monoclonal antibody to PCNA (Beckman Coulter Miami, Fla., USA) or rabbit polyclonal antibody to WT-1 were incubated on MC-fixed tissue, and rabbit polyclonal antibodies to podocin, nephrin, podocalyxin, and synaptopodin were incubated on frozen sections. Primary mouse antibody to PCNA was incubated with a peroxidase conjugated rat anti-mouse IgM antibody (Zymed Laboratories, Inc. So. San Francisco, Calif., USA); all other primary antibodies were incubated with biotinylayted goat anti-rabbit antibody followed by either avidin D conjugated horseradish peroxidase (WT-1) or avidin conjugated AlexaFluor. PCNA and WT-1 stains were visualized with diaminobenzidine (Sigma Chemicals, St. Louis, Mo., USA).
as §2, with “Experimental and control animals were studied on day 7 and 14 (n=5 per group/time point).” left out

[6] = nephritic mice, days 5 and 14 after disease induction, vs control nephritic mice given vehicle
[7] = nephritic mice, vs control nephritic animals given vehicle

SMILES: CC1=C(/C=C/C(C)=C/C=C/C(C)=C/C(=O)O)C(C)(C)CCC1 [ATRA, all-trans retinoic acid]
- podocin immunostaining compared to control ([1]; HSMP): increased immunostaining
- nephrin immunostaining compared to control cells exposed to vehicle ([1]; heat sensitive mouse podocytes): nephrin immunostaining increased
- nephrin protein level (Western blot) (primary mouse podocytes; 1 μM ATRA): increased the protein levels
- podocin protein level (Western blot) (primary mouse podocytes; 1 μM ATRA): increased the protein levels
- nephrin protein level (Western blot) (primary mouse podocytes; 5 μM ATRA): increased the protein levels
- podocin protein level (Western blot) (primary mouse podocytes; 5 μM ATRA): increased the protein levels
- apoptosis (Hoecht's Assay) (podocytes [2]): not increased
- process formation (scanning electron microscopy) (cultured rat podocytes; 1 μM ATRA): resulted in the presence of processes
- process formation (scanning electron microscopy) (cultured rat podocytes; Ten 1 μM ATRA): marked increase in the number and length of processes
- cells undergoing apoptosis (Hoechst staining) (podocytes [3]): < 4 % of total cells
- BUN increase ([4]; day 7): not altered
- BUN increase ([4]; day 14): not altered
- proteinuria vs control (vehicle) ([4]; day 7): significantly reduced proteinuria
- proteinuria vs control (vehicle) ([4]; day 14): significantly reduced proteinuria
- number of cells that stained positive for PCNA vs normal ([5]; experimental (ATRA treated) mice, day 5, P<0.05 vs normal, FIG. 4 legend): increased
- PCNA staining (podocyte proliferation) vs control ([5]; nephritic mice, day 7): did not have a statistically significant effect
- WT-1 staining (podocyte number) vs control ([5]; nephritic mice, day 7): prevented the decrease in WT-1 staining; also recorded: prevented the decrease in podocyte number
- PCNA staining (podocyte proliferation) vs control ([5]; nephritic mice, day 14): significantly reduced podocyte proliferation; also recorded: significantly reduced PCNA immunostaining
- WT-1 staining (podocyte number) vs control ([5]; nephritic mice, day 14): prevented the decrease in WT-1 staining; also recorded: prevented the decrease in podocyte number
- nephrin immunostaining in kidney [5, 6]: prevented the decrease in immunostaining
- podocin immunostaining in kidney [5, 6]: prevented the decrease in immunostaining
- synaptopodin immunostaining in kidney [5, 6]: prevented the decrease in immunostaining
- CD2AP immunostaining in kidney [5, 7]: not different from control nephritic animals
- p35 immunostaining in kidney [5, 7]: not different from control nephritic animals

Reference: patent US20050112123A1, “Methods of treating proteinuria” (priority 2003, published 2005)
